Earlier results in article PMC10686834, “Targeting myeloid chemotaxis to reverse prostate cancer therapy resistance” (Nature, 2023).
Where two headings read alike, the source gives them in different places.

Assays:
mCRPC patients = tested on: mCRPC patients; set-up: method as in ref (10) (a number printed in a supplementary file, which may have a reference list of its own: not looked up in the article's list); details: ref (10), cited from earlier work
CYP3A4 [1] = tested on: CYP3A4; set-up: method as in U.S enzalutamide Full Prescribing Information; details: single 160mg oral dose after multiple oral doses of itraconazole; ref U.S enzalutamide Full Prescribing Information; cited from earlier work
CYP2C9 = tested on: CYP2C9; set-up: method as in U.S enzalutamide Full Prescribing Information; details: steady state; ref U.S enzalutamide Full Prescribing Information; cited from earlier work
[2] = tested on: chemotherapy naïve patients with progressive metastatic prostate cancer; set-up: method as in ref (17) (a number printed in a supplementary file, which may have a reference list of its own: not looked up in the article's list); details: PREVAIL, ref (17), cited from earlier work
[3] = set-up: method as in U.S enzalutamide Full Prescribing Information; details: ref U.S enzalutamide Full Prescribing Information, cited from earlier work
CYP2C19 = tested on: CYP2C19; set-up: method as in U.S enzalutamide Full Prescribing Information; details: steady state; ref U.S enzalutamide Full Prescribing Information; cited from earlier work
CYP3A4 [4] = tested on: CYP3A4; set-up: method as in U.S enzalutamide Full Prescribing Information; details: steady state; ref U.S enzalutamide Full Prescribing Information; cited from earlier work
[5] = tested on: patients with progressive castration resistant prostate cancer previously treated with docetaxel; set-up: method as in ref (8) (a number printed in a supplementary file, which may have a reference list of its own: not looked up in the article's list); details: AFFIRM, ref (8), cited from earlier work

## C[C@]12CC[C@H](O)CC1=CC[C@@H]1[C@@H]2CC[C@]2(C)C(c3cccnc3)=CC[C@@H]12 [abiraterone]
mCRPC patients; patients with an NLR > 5
  patients responding to abiraterone (PSA decline ≥50% below baseline maintained for ≥3 weeks): 16%
mCRPC patients; patients with an NLR ≤ 5
  patients responding to abiraterone (PSA decline ≥50% below baseline maintained for ≥3 weeks): 49%

## CNC(=O)c1ccc(N2C(=S)N(c3ccc(C#N)c(C(F)(F)F)c3)C(=O)C2(C)C)cc1F [enzalutamide]
CYP3A4 [1]
  increase of AUC0-inf of enzalutamide plus N-desmethyl-enzalutamide: 1.3 fold
CYP2C9
  CYP2C9 induction in humans: moderate
[2]; enzalutamide group
  grade 3 or higher adverse events: 43%
  hypertension, grade 3 or higher: 7%
  patients alive at time of analysis: 72%
  rate of radiographic progression-free survival at 12 months: 65%
[2]; enzalutamide vs placebo
  HR, radiographic progression-free survival: 0.19
  HR, survival: 0.71
  HR, time to PSA progression: 0.17
  HR, time to initiation of cytotoxic therapy: 0.35
  HR, time until the first skeletal-related event: 0.72
[2]; enzalutamide
  complete/partial soft tissue response: 59%
  reduction in PSA level by 50% or more: 78%
[3]; after a single oral dose
  time to maximum plasma concentration (tmax): 1 h
[3]; daily oral administration
  time to reach steady state concentrations: approximately 1 month
[3]; steady state
  average difference between peak (Cmax) and trough (Cmin) concentrations: 25%
CYP2C19
  CYP2C19 induction in humans: moderate
CYP3A4 [4]
  CYP3A4 induction in humans: strong
[5]; enzalutamide group (800 patients)
  median overall survival: 18.4 months
[5]; enzalutamide group
  incidence of grade 3 adverse events: 45.3%
[5]; enzalutamide vs placebo
  HR, radiographic progression-free survival: 0.40
  HR, time to PSA progression: 0.25
  HR, time to first skeletal-related event: 0.69
[5]; enzalutamide
  quality of life response rate: 43%
  radiographic progression-free survival: 8.3 months
  reduction in PSA level by 50% or more: 54%
  soft tissue response rate: 29%
  time to PSA progression: 8.3 months
  time to first skeletal-related event: 16.7 months
[5]; patients receiving enzalutamide
  liver-function abnormalities reported as adverse events: 1%
